Biological target: glucocorticoid receptor (Homo sapiens (Human), UniProt P04150)
Test: HepG2 TAT assay: inhibition of dexamethasone-induced tyrosine aminotransferase (TAT) activity
Type: cell-based
Details: HepG2 cells, challenge of 100 nM dexamethasone, 18-24 hr; IC50 converted to Ki by Cheng and Prusoff equation
Protocol: Glucocorticoid mediated activation of TAT occurs by transactivation of glucocorticoid response elements in the TAT promoter by glucocorticoid receptor-agonist complex.
HepG2 cells were cultured using MEME media supplemented with 10% (v/v) foetal bovine serum; 2 mM L-glutamine and 1% (v/v) NEAA at 37° C., 5%/95% (v/v) CO2/air.
Compounds were serially half log diluted in 100% (v/v) dimethylsulphoxide from a 10 mM stock.
HepG2 cells were then lysed with 30 μl of cell lysis buffer containing a protease inhibitor cocktail for 15 minutes at 4° C. […] After 2 hours incubation at 37° C. the reaction was terminated by the addition of 15 μl of 10M aqueous potassium hydroxide solution, and the plates incubated for a further 30 minutes at 37° C.
[compound] and fitting the data to a 4 parameter logistic equation.

Sequence of glucocorticoid receptor (P04150 whole entry): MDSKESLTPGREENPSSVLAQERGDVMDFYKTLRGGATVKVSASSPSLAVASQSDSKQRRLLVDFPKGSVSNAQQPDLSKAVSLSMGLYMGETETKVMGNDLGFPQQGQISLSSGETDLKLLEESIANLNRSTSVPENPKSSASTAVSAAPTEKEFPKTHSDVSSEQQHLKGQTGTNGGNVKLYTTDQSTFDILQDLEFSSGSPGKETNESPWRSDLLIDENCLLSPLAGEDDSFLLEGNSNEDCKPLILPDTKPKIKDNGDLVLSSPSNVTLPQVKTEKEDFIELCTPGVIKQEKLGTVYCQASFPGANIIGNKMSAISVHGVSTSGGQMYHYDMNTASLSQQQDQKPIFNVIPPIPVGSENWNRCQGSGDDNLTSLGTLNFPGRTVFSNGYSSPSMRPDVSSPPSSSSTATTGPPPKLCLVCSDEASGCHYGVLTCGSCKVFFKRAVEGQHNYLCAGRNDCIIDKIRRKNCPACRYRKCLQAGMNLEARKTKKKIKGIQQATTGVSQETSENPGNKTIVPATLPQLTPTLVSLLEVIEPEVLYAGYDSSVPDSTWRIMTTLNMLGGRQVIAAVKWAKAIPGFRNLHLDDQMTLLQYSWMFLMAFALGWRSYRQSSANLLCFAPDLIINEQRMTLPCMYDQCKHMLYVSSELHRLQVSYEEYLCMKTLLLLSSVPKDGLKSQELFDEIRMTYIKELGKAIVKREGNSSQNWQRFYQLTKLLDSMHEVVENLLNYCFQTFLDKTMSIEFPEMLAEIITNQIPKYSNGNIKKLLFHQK

Ki [nM] | SMILES
65 | Cc1cc2c(cnn2-c2ccc(F)cc2)cc1[C@@]12CN(C(=O)c3cccnc3)C[C@@H]1[C@H]2c1ccccc1 (single isomer, unassigned) [Example 112, (1-(1-(4-fluorophenyl)-6-methyl-1H-indazol-5-yl)-6-phenyl-3-azabicyclo[3.1.0]hexan-3-yl)(pyridin-3-yl)methanone]
29 | Cc1cc2c(cnn2-c2ccc(F)cc2)cc1[C@@]12CN(C(=O)c3ncccc3C)C[C@@H]1[C@H]2c1ccccc1 (stereo in doubt) [Example 162, (1-(1-(4-fluorophenyl)-6-methyl-1H-indazol-5-yl)-6-phenyl-3-azabicyclo[3.1.0]hexan-3-yl)(3-methylpyridin-2-yl)methanone]
330 | Cc1cc2c(cnn2-c2ccc(F)cc2)cc1C12CN(S(=O)(=O)c3cnn(C)c3)CC1CC(O)(c1ccccn1)C2 (centres unmarked) [Example 15]
34 | Cc1cc2c(cnn2-c2ccc(F)cc2)cc1[C@@]12CN(C(=O)c3cccc(F)c3)C[C@@H]1[C@H]2c1ccccc1 (stereo in doubt) [Example 117, (3-fluorophenyl)(1-(1-(4-fluorophenyl)-6-methyl-1H-indazol-5-yl)-6-phenyl-3-azabicyclo[3.1.0]hexan-3-yl)methanone]
14 | Cc1ccnc(C(=O)N2C[C@@H]3[C@@H](c4ccccc4)[C@]3(c3cc4cnn(-c5ccc(F)cc5)c4cc3C)C2)c1 (single isomer, unassigned) [Example 146, (1-(1-(4-fluorophenyl)-6-methyl-1H-indazol-5-yl)-6-phenyl-3-azabicyclo[3.1.0]hexan-3-yl)(4-methylpyridin-2-yl)methanone]
84 | Cc1cc2c(cnn2-c2ccc(F)cc2)cc1[C@@]12CN(C(=O)c3ccncc3)C[C@@H]1[C@H]2c1ccccc1 (single isomer, unassigned) [Example 165, (1-(1-(4-fluorophenyl)-6-methyl-1H-indazol-5-yl)-6-phenyl-3-azabicyclo[3.1.0]hexan-3-yl)(pyridin-4-yl)methanone]
96 | Cc1cc2c(cnn2-c2ccc(F)cc2)cc1C12CC(Oc3ccccc3)CC1CN(C(=O)OC(C)(C)C)C2 (centres unmarked) [Example 45]
100 | Cc1cc2c(cnn2-c2ccc(F)cc2)cc1[C@@]12CN(c3ncccn3)C[C@@H]1[C@H]2c1ccccc1 (stereo in doubt) [Example 185, 1-(4-fluorophenyl)-6-methyl-5-(6-phenyl-3-(pyrimidin-2-yl)-3-azabicyclo[3.1.0]hexan-1-yl)-1H-indazole]
490 | Cc1cc2c(cnn2-c2ccc(F)cc2)cc1C12CN(S(=O)(=O)c3cnn(C)c3)CC1CC(O)(c1nccs1)C2 (centres unmarked) [Example 2, 3a-(1-(4-fluorophenyl)-6-methyl-1H-indazol-5-yl)-2-((1-methyl-1H-pyrazol-4-yl)sulfonyl)-5-(thiazol-2-yl)octahydrocyclopenta[c]pyrrol-5-ol]
19 | COc1cccc(C(=O)N2C[C@@H]3[C@@H](c4ccccc4)[C@]3(c3cc4cnn(-c5ccc(F)cc5)c4cc3C)C2)c1 (single isomer, unassigned) [Example 141, (1-(1-(4-fluorophenyl)-6-methyl-1H-indazol-5-yl)-6-phenyl-3-azabicyclo[3.1.0]hexan-3-yl)(3-methoxyphenyl)methanone]
32 | COC1(c2ccccc2)CC2CN(S(=O)(=O)C(C)C)CC2(c2cc3cnn(-c4ccc(F)cc4)c3cc2C)C1 (centres unmarked) [Example 30]
350 | CO[C@@]1(c2ccccc2)C[C@@H]2CN(S(=O)(=O)c3cnn(C)c3)C[C@]2(c2cc3cnn(-c4ccc(F)cc4)c3cc2C)C1 [Example 7, 1-(4-fluorophenyl)-5-((3aR,5S,6aS)-5-methoxy-2-((1-methyl-1H-pyrazol-4-yl)sulfonyl)-5-phenylhexahydrocyclopenta[c]pyrrol-3a(1H)-yl)-6-methyl-1H-indazole]
260 | Cc1cc2c(cnn2-c2ccc(F)cc2)cc1C12CN(S(=O)(=O)c3cnn(C)n3)CC1C2c1ncco1 (centres unmarked) [Example 133, 2-(1-(1-(4-fluorophenyl)-6-methyl-1H-indazol-5-yl)-3-((2-methyl-2H-1,2,3-triazol-4-yl)sulfonyl)-3-azabicyclo[3.1.0]hexan-6-yl)oxazole]
52 | Cc1cc2c(cnn2-c2ccc(F)cc2)cc1[C@@]12CN(C(=O)C3CCC3)C[C@@H]1[C@H]2c1ccccc1 (stereo in doubt) [Example 120, cyclobutyl(1-(1-(4-fluorophenyl)-6-methyl-1H-indazol-5-yl)-6-phenyl-3-azabicyclo[3.1.0]hexan-3-yl)methanone]
87 | Cc1cc2c(cnn2-c2ccc(F)cc2)cc1C12CC(c3ccccc3)CC1CN(S(C)(=O)=O)C2 (centres unmarked) [Example 46, 1-(4-fluorophenyl)-6-methyl-5-(2-(methylsulfonyl)-5-phenylhexahydrocyclopenta[c]pyrrol-3a(1H)-yl)-1H-indazole]
420 | CC(=O)N1CC2CC(Oc3ccccc3)CC2(c2cc3cnn(-c4ccc(F)cc4)c3cc2C)C1 (centres unmarked) [Example 40]
270 | Cc1cc2c(cnn2-c2ccc(F)cc2)cc1C12CN(S(=O)(=O)c3cnn(C)n3)CC1C2CO (centres unmarked) [Example 47, (1-(1-(4-fluorophenyl)-6-methyl-1H-indazol-5-yl)-3-((2-methyl-2H-1,2,3-triazol-4-yl)sulfonyl)-3-azabicyclo[3.1.0]hexan-6-yl)methanol]
38 | Cc1nc(C(=O)N2C[C@@H]3[C@@H](c4ccccc4)[C@]3(c3cc4cnn(-c5ccc(F)cc5)c4cc3C)C2)cs1 (single isomer, unassigned) [Example 153, (1-(1-(4-fluorophenyl)-6-methyl-1H-indazol-5-yl)-6-phenyl-3-azabicyclo[3.1.0]hexan-3-yl)(2-methylthiazol-4-yl)methanone]
36 | Cc1cc2c(cnn2-c2ccc(F)cc2)cc1[C@@]12CN(C(=O)c3ncccn3)C[C@@H]1[C@H]2c1ccccc1 (stereo in doubt) [Example 171, (1-(1-(4-fluorophenyl)-6-methyl-1H-indazol-5-yl)-6-phenyl-3-azabicyclo[3.1.0]hexan-3-yl)(pyrimidin-2-yl)methanone]
40 | COC(=O)N1C[C@@H]2[C@@H](c3ccccc3)[C@]2(c2cc3cnn(-c4ccc(F)cc4)c3cc2C)C1 (single isomer, unassigned) [Example 118, methyl 1-(1-(4-fluorophenyl)-6-methyl-1H-indazol-5-yl)-6-phenyl-3-azabicyclo[3.1.0]hexane-3-carboxylate]
97 | Cc1cc2c(cnn2-c2ccc(F)cc2)cc1C12CC(Oc3ccccc3)CC1CN(S(C)(=O)=O)C2 (centres unmarked) [Example 38]
27 | COCCOC(=O)N1C[C@@H]2[C@@H](c3ccccc3)[C@]2(c2cc3cnn(-c4ccc(F)cc4)c3cc2C)C1 (single isomer, unassigned) [Example 123, 2-methoxyethyl 1-(1-(4-fluorophenyl)-6-methyl-1H-indazol-5-yl)-6-phenyl-3-azabicyclo[3.1.0]hexane-3-carboxylate]
5.7 | Cc1cc2c(cnn2-c2ccc(F)cc2)cc1[C@@]12CN(C(=O)c3ccccc3C#N)C[C@@H]1[C@H]2c1ccccc1 (single isomer, unassigned) [Example 130, 2-(1-(1-(4-fluorophenyl)-6-methyl-1H-indazol-5-yl)-6-phenyl-3-azabicyclo[3.1.0]hexane-3-carbonyl)benzonitrile]
180 | Cc1cc2c(cnn2-c2ccc(F)cc2)cc1[C@@]12CN(C(=O)c3ccccc3)C[C@@H]1[C@]2(C)c1ccccc1 (stereo in doubt) [Example 182, (1-(1-(4-fluorophenyl)-6-methyl-1H-indazol-5-yl)-6-methyl-6-phenyl-3-azabicyclo[3.1.0]hexan-3-yl)(phenyl)methanone]
36 | Cc1cc2c(cnn2-c2ccc(F)cc2)cc1[C@@]12CN(C(=O)c3ccc(C#N)cc3)C[C@@H]1[C@H]2c1ccccc1 (stereo in doubt) [Example 115, 4-(1-(1-(4-fluorophenyl)-6-methyl-1H-indazol-5-yl)-6-phenyl-3-azabicyclo[3.1.0]hexane-3-carbonyl)benzonitrile]
79 | CO[C@@]1(c2ccccc2)C[C@H]2CN(C(=O)c3ccccc3)C[C@@]2(c2cc3cnn(-c4ccc(F)cc4)c3cc2C)C1 (single isomer, unassigned) [Example 20, (3a-(1-(4-fluorophenyl)-6-methyl-1H-indazol-5-yl)-5-methoxy-5-phenylhexahydrocyclopenta[c]pyrrol-2(1H)-yl)(phenyl)methanone]
5.9 | Cc1cc2c(cnn2-c2ccc(F)cc2)cc1[C@@]12CN(C(=O)c3ccccc3F)C[C@@H]1[C@H]2c1ccccc1 (single isomer, unassigned) [Example 128, (2-fluorophenyl)(1-(1-(4-fluorophenyl)-6-methyl-1H-indazol-5-yl)-6-phenyl-3-azabicyclo[3.1.0]hexan-3-yl)methanone]

SMILES | Ki [nM]
Cc1cc2c(cnn2-c2ccc(F)cc2)cc1[C@@]12CN(S(C)(=O)=O)C[C@@H]1[C@H]2C(=O)Nc1ccc(F)cn1 [Example 67] | 84
Cc1cc2c(cnn2-c2ccc(F)cc2)cc1[C@@]12CN(S(=O)(=O)c3cccnc3)C[C@@H]1[C@H]2c1ccccc1 [Example 90] | 14
Cc1cc2c(cnn2-c2ccc(F)cc2)cc1[C@@]12CN(S(=O)(=O)N3CCC3)C[C@@H]1[C@H]2c1ccccc1 [Example 105] | 14
COC1CCN(S(=O)(=O)N2C[C@@H]3[C@@H](c4ccccc4)[C@]3(c3cc4cnn(-c5ccc(F)cc5)c4cc3C)C2)CC1 [Example 109] | 13
Cc1cc2c(cnn2-c2ccc(F)cc2)cc1[C@@]12CN(S(=O)(=O)N3CCCCC3)C[C@@H]1[C@H]2c1ccccc1 [Example 102] | 26

From patent publication US20250115583A1, “BICYCLIC INDAZOLE GLUCOCORTICOID RECEPTOR ANTAGONISTS” (Corcept Therapeutics Incorporated, priority 2021, published 2025)
